The assay deals with mouse elevated plus maze. Kind of assay: Anxiolytic-like action, mouse elevated plus maze. The conditions noted are these: Example 13 at 10 mg/kg or more oral; diazepam 3 mg/kg oral. It is filed as in vivo. The procedure:
In Parkinson's disease, psychiatric symptom (e.g. depression, anxiety) is known as one of its non-motor symptoms. The anxiolytic-like action of the present invention was evaluated with mouse elevated plus maze. The present test is broadly used as a method for evaluating the anxiolytic-like action of agents.
In the present test, male Crl: CD1 (ICR) mice (CHARLES RIVER LABORATORIES JAPAN, INC.) were used. One hour before the test was started, the solvent, the compound of Example 13 (3 mg/kg, 10 mg/kg, 30 mg/kg, or 100 mg/kg), or diazepam (3 mg/kg) which is a positive control was orally administered to the mouse. The mouse was put into a center platform in which the illuminance was adjusted to 80-100 Lux level. The head of the mouse was set toward the closed arm, and then the test was started. The mouse was allowed to explore freely for 5 minutes. When ⅓ of the mouse's body entered the arm, the behavior was counted as arm entry. And, the time spent in the open arm was also measured with a stopwatch. The ratio of the count of the open arm entry per the count of the all arm entry, and the ratio of the time spent in the open arm per the total exploration time (5 minutes) were calculated. […] Thus, the ratio of the count of the open arm entry per the count of the all arm entry, and the ratio of the time spent in the open arm per the total exploration time tend to be small values. When these ratios in the drug administration group are higher than those of the solvent administration group, it can be judged that the drug has anxiolytic-like action.

Take `C[C@H](c1noc2ccccc12)S(N)(=O)=O` [Example 13, (1R)-1-(1,2-benzoxazol-3-yl)ethane-1-sulfonamide]: the “count of the open arm entry” value was “increase significantly” and the “time spent in the open arm” value was “increase significantly”.

Source of the values: patent US11535599B2, “Benzisoxazole derivative” (Sumitomo Pharma Co., Ltd., priority 2020, dated 2022).
